Reference: patent US20240285571A1, “METHODS OF TREATING BONE INFECTIONS” (MICROBION CORPORATION, priority 2020, published 2024)
Converted amounts (≈) assume the structure as drawn. Like-named read-outs stand apart in the source and are kept apart here. Values belong to the molecule of their own block, whether it stands above or below them.

What was measured:
[1] = system: C. difficile; assay: Agar dilution MIC, anaerobes (Example 5); assay type: cell-based, Clostridium difficile; conditions: Clostridioides difficile, read-out: MIC
[2] = system: C. difficile; conditions: C. difficile MMX 4381 (ATCC 700057); cited from earlier work
[3] = system: B. fragilis; assay: Agar dilution MIC, anaerobes (Example 5); assay type: cell-based; conditions: Bacteroides fragilis, ATCC25285; B. fragilis MMX 123 (ATCC 25285); QC; read-out: MIC
[4] = system: C. tropicalis; assay: Broth microdilution MIC, yeast (Example 5); assay type: cell-based; conditions: FLUR
Procedure: (§1) Test and Comparator Agents: The test agents were stored at room temperature until assayed. All test agents were suspended and diluted in 100% dimethylsulfoxide (DMSO), and were ultimately tested at a final concentration of 0.06-64 μg/mL. The stock solutions were allowed to stand for at least 1 hr prior to use to auto-sterilize.
(§2) The susceptibility of yeast isolates was determined by broth microdilution in RPMI medium (HyClone Laboratories, Logan, UT; Lot No. AZC184041B) buffered with 0.165 M MOPS (Calbiochem, Billerica, MA; Lot No. 2694962). The pH of the medium was adjusted to 7.0 with 1 N NaOH, sterile filtered using a 0.2 μm PES filter, and stored at 4° C. until used.
(§3) Broth Microdilution MC Testing (Aerobic Bacteria and Yeast): The broth microdilution assay method employed for the susceptibility testing of aerobic bacteria (excluding N. gonorrhoeae which was evaluated by agar dilution) and yeast essentially followed the procedures described by CLSI (3, 4, 7, 8) and employed automated liquid handlers to conduct serial dilutions and liquid transfers. Automated liquid handlers included the Multidrop 384 (Labsystems, Helsinki, Finland) and Biomek 2000 (Beckman Coulter, Fullerton CA). The wells in columns 2-12 in standard 96-well microdilution plates (Costar 3795) were filled with 150 μl of the correct diluent. These would become the ‘mother plates’ from which ‘daughter’ or test plates would be prepared. The drugs (300 μL at 40× the desired top concentration in the test plates) were dispensed into the appropriate well in Column 1 of the mother plates. The Biomek 2000 was used to make serial two-fold dilutions through Column 11 in the “mother plate”. The wells of Column 12 contained no drug and ultimately served as the organism growth control wells.
(§4) The daughter plates were loaded with 185 μL per well of the appropriate test media using the Multidrop 384. The daughter plates were prepared using the Biomek FX which transferred 5 μL of drug solution from each well of a mother plate to the corresponding well of the correct daughter plate in a single step.
(§5) A standardized inoculum of each organism was prepared per CLSI methods (3, 7). Isolated colonies of each test isolate were picked from the primary plate and a suspension was prepared to equal a 0.5 McFarland turbidity standard. Standardized suspensions were then diluted […] (1:100 for yeast, 1:20 for bacteria). After dilution, the inoculum suspensions were then transferred to compartments of sterile reservoirs divided by length (Beckman Coulter), and the Biomek 2000 was used to inoculate all plates. Daughter plates were placed on the Biomek 2000 in reverse orientation so that plates were inoculated from low to high drug concentration.
(§6) The Biomek 2000 delivered 10 μL of standardized inoculum into each well of the appropriate daughter plate for an additional 1:20 dilution. […] The final concentration of DMSO (if used as a solvent) in the test well was 2.5%.
(§7) Plates were stacked 4 high, covered with a lid on the top plate, placed into plastic bags, and incubated at 35° C. for approximately 24-48 hr for all yeast isolates and 16-24 hr for aerobic bacteria. Plates were viewed from the bottom using a plate viewer. […] MIC endpoints for the test agents and control compounds were read per CLSI criteria (3, 7).

[5] = system: C. albicans; assay: Broth microdilution MIC, yeast (Example 5); assay type: cell-based; conditions: Sensitive
Procedure: as §1, §2, §3, §4, §5, §6, §7

[6] = system: C. parapsilosis; assay: Broth microdilution MIC, yeast (Example 5); assay type: cell-based
Procedure: as §1, §2, §3, §4, §5, §6, §7

[7] = system: C. glabrata; assay: Broth microdilution MIC, yeast (Example 5); assay type: cell-based; conditions: FLUR
Procedure: as §1, §2, §3, §4, §5, §6, §7

[8] = system: C. parapsilosis; conditions: C. parapsilosis MMX 2323 (ATCC 22019), cited from earlier work

MIC ([1]; ATCC700057, C. difficile MMX 4381 (ATCC 700057), QC, CCI): 0.25 mg/L (≈ 0.236 µM) | MIC ([1]; C. difficile MMX 8272, ribotype 255, CCI): 0.5 mg/L (≈ 0.473 µM) | MIC ([1]; C. difficile MMX 8279, ribotype 005, CCR): 0.5 mg/L (≈ 0.473 µM) | MIC ([1]; C. difficile MMX 8281, ribotype 010, CCR): 0.5 mg/L (≈ 0.473 µM) | MIC ([1]; NCTC13307, C. difficile MMX 5681 (NCTC 13307), ribotype 012, CCR): 0.5 mg/L (≈ 0.473 µM) | MIC ([1]; NCTC13336, C. difficile MMX 5680 (NCTC 13336), ribotype 027, CCI METR): 4 mg/L (≈ 3.78 µM) | MIC [3]: > 64 mg/L
Structure (SMILES): CCc1c(Cl)c(O)c(Cl)c(O)c1C(=O)O[C@H]1[C@H](O)[C@H](OC)[C@H](OC/C2=C\C=C\C[C@H](O)/C(C)=C/[C@H](CC)[C@@H](O[C@@H]3OC(C)(C)[C@@H](OC(=O)C(C)C)[C@H](O)[C@@H]3O)/C(C)=C/C(C)=C/C[C@@H]([C@@H](C)O)OC2=O)O[C@@H]1C [Fidaxomicin]
CLSI QC range of MIC [2]: (0.06-0.25) μg/mL

MIC ([4]; C. tropicalis MMX 7247, 24 hr): 0.5 µg/mL (≈ 0.541 µM) | MIC ([4]; C. tropicalis MMX 7247, 48 hr): 1 µg/mL (≈ 1.08 µM) | MIC ([4]; C. tropicalis MMX 7248, 24 hr): 0.5 µg/mL (≈ 0.541 µM) | MIC ([4]; C. tropicalis MMX 7248, 48 hr): 1 µg/mL (≈ 1.08 µM) | MIC ([4]; C. tropicalis MMX 7360, 24 hr): 0.5, 0.5 μg/mL | MIC ([4]; C. tropicalis MMX 7360, 48 hr): 0.5, 0.5 μg/mL | MIC ([5]; C. albicans MMX 7039, 24 hr): 0.5, 0.5 μg/mL | MIC ([5]; C. albicans MMX 7039, 48 hr): 0.5, 0.5 μg/mL | MIC ([5]; C. albicans MMX 7055, 24 hr): 0.25 µg/mL (≈ 0.271 µM) | MIC ([5]; C. albicans MMX 7055, 48 hr): 0.5 µg/mL (≈ 0.541 µM) | MIC ([6]; C. parapsilosis MMX 2323 (ATCC 22019), QC, 24 hr): 0.5 µg/mL (≈ 0.541 µM) | MIC ([6]; C. parapsilosis MMX 2323 (ATCC 22019), QC, 48 hr): 1 µg/mL (≈ 1.08 µM) | MIC ([6]; C. parapsilosis MMX 7370, FLUR, 24 hr): 0.5 µg/mL (≈ 0.541 µM) | MIC ([6]; C. parapsilosis MMX 7370, FLUR, 48 hr): 1 µg/mL (≈ 1.08 µM) | MIC ([6]; C. parapsilosis MMX 7555, FLUR, 24 hr): 0.5, 0.5 μg/mL | MIC ([6]; C. parapsilosis MMX 7555, FLUR, 48 hr): 0.5, 0.5 μg/mL | MIC ([7]; C. glabrata MMX 7086, 24 hr): 0.5 mg/L (≈ 0.541 µM) | MIC ([7]; C. glabrata MMX 7086, 48 hr): 1 mg/L (≈ 1.08 µM) | MIC ([7]; C. glabrata MMX 7318, 24 hr): 0.5 mg/L (≈ 0.541 µM) | MIC ([7]; C. glabrata MMX 7318, 48 hr): 1 mg/L (≈ 1.08 µM)
Structure (SMILES): C[C@@H]1[C@H](O)[C@@H](C)/C=C/C=C/C=C/C=C/C=C/C=C/C=C/[C@H](O[C@@H]2O[C@H](C)[C@@H](O)[C@H](N)[C@@H]2O)C[C@@H]2O[C@](O)(C[C@@H](O)C[C@@H](O)[C@H](O)CC[C@@H](O)C[C@@H](O)CC(=O)O[C@H]1C)C[C@H](O)[C@H]2C(=O)O [Amphotericin B, reference compound]
CLSI QC range of MIC ([8]; 24 hr): 0.25 to 2 mg/L | CLSI QC range of MIC ([8]; 48 hr): 0.5 to 4 mg/L
